# System: PC3 cells
# Test: NAMPT Cell Proliferation Assay
# Type: cell-based
# Settings: Homo sapiens, PC-3, 120 h, 5 days incubation, cell viability by Cell Titer Glo
# Summary of the method: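 Seeded at 500 cells/well in RPMI with 10% heat-inactivated FBS and left to attach overnight at 37° C, 5% CO2. Compounds were added as 10-fold dilutions […] for 5 days, then viability was read by CellTiter-Glo. IC50s came from sigmoidal fits of percent inhibition.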
row,IC50,SMILES
1,> 10000 nM,"CC(C)Cn1cc(-c2ccc(C(=O)N[C@H]3CCN(c4ccc(Cl)nn4)C3)s2)cn1 [Example 621, N-[(3S)-1-(6-chloropyridazin-3-yl)pyrrolidin-3-yl]-5-[1-(2-methylpropyl)-1H-pyrazol-4-yl]thiophene-2-carboxamide]"
2,48.2 nM,"O=C(Nc1ccc(S(=O)(=O)C2CCN(C(=O)C3CCCCC3)CC2)cc1)C1CN(c2cccnn2)C1 [Example 568, N-(4-{[1-(cyclohexylcarbonyl)piperidin-4-yl]sulfonyl}phenyl)-1-(pyridazin-3-yl)azetidine-3-carboxamide]"
3,7.7 nM,"O=C(Nc1ccc(C2CCN(C(=O)Cc3ccc(F)cc3)CC2)cc1)C1CN(c2cccnn2)C1 [Example 368, N-(4-{1-[(4-fluorophenyl)acetyl]piperidin-4-yl}phenyl)-1-(pyridazin-3-yl)azetidine-3-carboxamide]"
4,86.8 nM,"O=C(Nc1ccc(O[C@@H]2CCN(C(=O)c3ccc(F)c(F)c3)C2)cc1)C1CN(c2ccnnc2)C1 [Example 451, N-(4-{[(3R)-1-(3,4-difluorobenzoyl)pyrrolidin-3-yl]oxy}phenyl)-1-(pyridazin-4-yl)azetidine-3-carboxamide]"
5,3.32 nM,"O=C(Nc1ccc(C2CCN(C(=O)c3cc(F)cc(F)c3)CC2)cc1)C1CN(c2ccnnc2)C1 [Example 552, N-{4-[1-(3,5-difluorobenzoyl)piperidin-4-yl]phenyl}-1-(pyridazin-4-yl)azetidine-3-carboxamide]"
6,21.2 nM,"CCC(CC)CN1CCC(Oc2ccc(NC(=O)C3CN(c4cccnc4)C3)cc2)CC1 [Example 78, N-(4-{[1-(2-ethylbutyl)piperidin-4-yl]oxy}phenyl)-1-(pyridin-3-yl)azetidine-3-carboxamide]"
7,1.87 nM,"O=C(Nc1ccc(C2CCN(C(=O)C3(c4ccccc4)CC3)CC2)cc1)C1CN(c2cccnn2)C1 [Example 381, N-(4-{1-[(1-phenylcyclopropyl)carbonyl]piperidin-4-yl}phenyl)-1-(pyridazin-3-yl)azetidine-3-carboxamide]"
8,0.475 nM,"O=C(Nc1ccc(C2CCN(C(=O)c3ccsc3)CC2)cc1)[C@H]1CCN(c2cccnn2)C1 [Example 655, (3S)-1-(pyridazin-3-yl)-N-{4-[1-(thiophen-3-ylcarbonyl)piperidin-4-yl]phenyl}pyrrolidine-3-carboxamide]"
9,0.3 nM,"O=C(Nc1ccc(C2CCN(C(=O)c3ccccc3)CC2)cc1)C1CN(c2cccnn2)C1 [Example 435, N-[4-(1-benzoylpiperidin-4-yl)phenyl]-1-(pyridazin-3-yl)azetidine-3-carboxamide]"
10,67.6 nM,"O=C(Nc1ccc(C2CCN(C(=O)C3CCOC3)CC2)cc1)C1CN(c2ccnnc2)C1 (stereo not shown) [Example 542, 1-(pyridazin-4-yl)-N-{4-[1-(tetrahydrofuran-3-ylcarbonyl)piperidin-4-yl]phenyl}azetidine-3-carboxamide]"
11,1070 nM,"Cc1ncccc1N1CC(C(=O)Nc2ccc(C3CCN(C(=O)CN4CCCC4)CC3)cc2)C1 [Example 166, 1-(2-methylpyridin-3-yl)-N-{4-[1-(pyrrolidin-1-ylacetyl)piperidin-4-yl]phenyl}azetidine-3-carboxamide]"
12,6.88 nM,"O=C(Nc1ccc(OC2CCN(C(=O)c3nccs3)CC2)cc1)C1CN(c2cccnn2)C1 [Example 213, 1-(pyridazin-3-yl)-N-(4-{[1-(1,3-thiazol-2-ylcarbonyl)piperidin-4-yl]oxy}phenyl)azetidine-3-carboxamide]"
13,0.64 nM,"Cc1ccsc1C(=O)N1CCC(c2ccc(NC(=O)C3CN(c4cccnc4)C3)cc2)CC1 [Example 111, N-(4-{1-[(3-methylthiophen-2-yl)carbonyl]piperidin-4-yl}phenyl)-1-(pyridin-3-yl)azetidine-3-carboxamide]"
14,6.11 nM,"O=C(Nc1ccc(C2CCN(C(=O)c3ccoc3)CC2)cc1)[C@H]1CCN(c2cccnn2)C1 [Example 687, (3S)-N-{4-[1-(furan-3-ylcarbonyl)piperidin-4-yl]phenyl}-1-(pyridazin-3-yl)pyrrolidine-3-carboxamide]"
15,59.5 nM,"O=C(Nc1ccc(C2CCN(C(=O)c3cccc(C(F)(F)F)c3)CC2)cc1)[C@H]1CCN(c2cccnn2)C1 [Example 711, (3S)-1-(pyridazin-3-yl)-N-(4-{1-[3-(trifluoromethyl)benzoyl]piperidin-4-yl}phenyl)pyrrolidine-3-carboxamide]"
16,47.8 nM,"CC(C)(C)C(=O)N1CCC(S(=O)(=O)c2ccc(NC(=O)C3CN(c4cccnn4)C3)cc2)CC1 [Example 594, N-(4-{[1-(2,2-dimethylpropanoyl)piperidin-4-yl]sulfonyl}phenyl)-1-(pyridazin-3-yl)azetidine-3-carboxamide]"
17,> 10000 nM,"CC(C)Cn1cc(-c2ccc(C(=O)N[C@H]3CCN(c4ccc(Cl)nn4)C3)o2)cn1 [Example 746, N-[(3S)-1-(6-chloropyridazin-3-yl)pyrrolidin-3-yl]-5-[1-(2-methylpropyl)-1H-pyrazol-4-yl]furan-2-carboxamide]"

row,IC50,SMILES
1,0.75 nM,"O=C(Nc1ccc(C2CCN(C(=O)c3ccccc3Cl)CC2)cc1)C1CN(c2cccnn2)C1 [Example 350, N-{4-[1-(2-chlorobenzoyl)piperidin-4-yl]phenyl}-1-(pyridazin-3-yl)azetidine-3-carboxamide]"
2,6250 nM,"Cc1ncccc1N1CC(C(=O)Nc2ccc(C3CCN(C(=O)[C@H]4CCC(=O)N4)CC3)cc2)C1 [Example 167, 1-(2-methylpyridin-3-yl)-N-{4-[1-(5-oxo D-prolyl)piperidin-4-yl]phenyl}azetidine-3-carboxamide]"
3,3.36 nM,"O=C(Nc1ccc(C2CCN(C(=O)C3CCCC3)CC2)cc1)C1CN(c2cccnn2)C1 [Example 439, N-{4-[1-(cyclopentylcarbonyl)piperidin-4-yl]phenyl}-1-(pyridazin-3-yl)azetidine-3-carboxamide]"
4,12.1 nM,"CC(C)(C)C(=O)N1CC[C@@H](Oc2ccc(NC(=O)C3CN(c4ccnnc4)C3)cc2)C1 [Example 481, N-(4-{[(3R)-1-(2,2-dimethylpropanoyl)pyrrolidin-3-yl]oxy}phenyl)-1-(pyridazin-4-yl)azetidine-3-carboxamide]"
5,97.9 nM,"O=C(Nc1ccc(OC2CCN(C(=O)C3CCOC3)CC2)cc1)C1CN(c2ccnnc2)C1 (stereo not shown) [Example 298, 1-(pyridazin-4-yl)-N-(4-{[1-(tetrahydrofuran-3-ylcarbonyl)piperidin-4-yl]oxy}phenyl)azetidine-3-carboxamide]"
6,117 nM,"CC(C)CC(=O)N1CCC(S(=O)(=O)c2ccc(NC(=O)C3CN(c4cccnn4)C3)cc2)CC1 [Example 597, N-(4-{[1-(3-methylbutanoyl)piperidin-4-yl]sulfonyl}phenyl)-1-(pyridazin-3-yl)azetidine-3-carboxamide]"
7,2.14 nM,"O=C(Nc1ccc(C2CCN(C(=O)c3cc(C(F)(F)F)ccc3Cl)CC2)cc1)C1CN(c2cccnn2)C1 [Example 395, N-(4-{1-[2-chloro-5-(trifluoromethyl)benzoyl]piperidin-4-yl}phenyl)-1-(pyridazin-3-yl)azetidine-3-carboxamide]"
8,82.2 nM,"COc1ccc(C(=O)N2CCC(S(=O)(=O)c3ccc(NC(=O)C4CN(c5cccnn5)C4)cc3)CC2)cc1 [Example 566, N-(4-{[1-(4-methoxybenzoyl)piperidin-4-yl]sulfonyl}phenyl)-1-(pyridazin-3-yl)azetidine-3-carboxamide]"
9,8.33 nM,"O=C(Nc1ccc(C2CCN(C(=O)CC(F)(F)F)CC2)cc1)[C@H]1CCN(c2cccnn2)C1 [Example 734, (3S)-1-(pyridazin-3-yl)-N-{4-[1-(3,3,3-trifluoropropanoyl)piperidin-4-yl]phenyl}pyrrolidine-3-carboxamide]"
10,0.82 nM,"O=C(Nc1ccc(O[C@@H]2CCN(C(=O)c3cccs3)C2)cc1)C1CN(c2cccnn2)C1 [Example 511, 1-(pyridazin-3-yl)-N-(4-{[(3R)-1-(thiophen-2-ylcarbonyl)pyrrolidin-3-yl]oxy}phenyl)azetidine-3-carboxamide]"
11,76.1 nM,"CC1CC1C(=O)N1CC(Oc2ccc(NC(=O)C3CN(c4ccnnc4)C3)cc2)C1 (stereo not shown) [Example 257, N-[4-({1-[(2-methylcyclopropyl)carbonyl]azetidin-3-yl}oxy)phenyl]-1-(pyridazin-4-yl)azetidine-3-carboxamide]"
12,9.51 nM,"O=C(Nc1ccc(OC2CCN(C(=O)CC(F)(F)F)CC2)cc1)C1CN(c2cccnn2)C1 [Example 252, 1-(pyridazin-3-yl)-N-(4-{[1-(3,3,3-trifluoropropanoyl)piperidin-4-yl]oxy}phenyl)azetidine-3-carboxamide]"
13,70.9 nM,"O=C(Nc1ccc(C2CCN(C(=O)CC3CCOCC3)CC2)cc1)C1CN(c2ccnnc2)C1 [Example 145, 1-(pyridazin-4-yl)-N-{4-[1-(tetrahydro-2H-pyran-4-ylacetyl)piperidin-4-yl]phenyl}azetidine-3-carboxamide]"
14,8.54 nM,"O=C(Nc1ccc(C2CCN(C(=O)c3ccc(Cl)cc3)CC2)cc1)C1CN(c2cccnn2)C1 [Example 401, N-{4-[1-(4-chlorobenzoyl)piperidin-4-yl]phenyl}-1-(pyridazin-3-yl)azetidine-3-carboxamide]"
15,> 10000 nM,"Cc1ncccc1N1CC[C@H](C(=O)Nc2ccc(C3CCN(C(=O)CCC(F)(F)F)CC3)cc2)C1 [Example 745, (3S)-1-(2-methylpyridin-3-yl)-N-{4-[1-(4,4,4-trifluorobutanoyl)piperidin-4-yl]phenyl}pyrrolidine-3-carboxamide]"
16,0.87 nM,"O=C(Nc1ccc(O[C@@H]2CCN(C(=O)c3cccc(F)c3)C2)cc1)C1CN(c2cccnn2)C1 [Example 518, N-(4-{[(3R)-1-(3-fluorobenzoyl)pyrrolidin-3-yl]oxy}phenyl)-1-(pyridazin-3-yl)azetidine-3-carboxamide]"

row,SMILES,IC50
1,"CC1(C(=O)N2C3CCC2CC(c2ccc(NC(=O)C4CN(c5cccnn5)C4)cc2)C3)CC1 (stereo not shown) [Example 845, N-(4-{8-[(1-methylcyclopropyl)carbonyl]-8-azabicyclo[3.2.1]oct-3-yl}phenyl)-1-(pyridazin-3-yl)azetidine-3-carboxamide]",2.09 nM

# Reference: US20130303509A1, “NAMPT INHIBITORS” (AbbVie Inc., priority 2012, published 2013)
